Laboratory results from patent US20140288039A1, “LI[…] CHAIN TE[…] FOR ORAL […]” (Lipocine Inc., priority 2009, published 2014).

Tests used:
[1] = Solubility of testosterone esters in lipophilic additives (castor oil, oleic acid, glyceryl mono and di linoleate), HPLC; details: room temperature, equilibrium, compared to the Undecanoate (T11) ester, values only in FIGS. 1-3
[2] = background statement, cited from earlier work
[3] = single daily dose oral administration

With CCCCCCCCCCCCCC(=O)O[C@H]1CC[C@H]2[C@@H]3CCC4=CC(=O)CC[C@]4(C)[C@H]3CC[C@]12C [Testosterone Tetradecoate (T14), Testosterone Tetradecoate] the “solubility in lipophilic additives (in words)” value [1] was “unexpectedly disproportionate lower solubility”.
In the case of CCCCCCCCCCCCC(=O)O[C@H]1CC[C@H]2[C@@H]3CCC4=CC(=O)CC[C@]4(C)[C@H]3CC[C@]12C [Testosterone Tridecoate (T13), Testosterone Tridecoate], the “solubility in lipophilic additives (in words)” value [1] is reported as “unexpectedly disproportionate lower solubility”.
In the case of CCCCCCCCCCC(=O)O[C@H]1CC[C@H]2[C@@H]3CCC4=CC(=O)CC[C@]4(C)[C@H]3CC[C@]12C [Testosterone Undecanoate (T11), Testosterone Undecanoate], the “percentage of patients in a group whose serum T remains in the hypogonadal range for a large proportion of the dosing period” value [2, 3] is listed as > 60% and the “time serum T levels remain in the hypogonadal range (<300 ng/dL) in a 24-hour period” value [2, 3] is listed as > 7 h.
In the case of C[C@]12CCC(=O)C=C1CC[C@@H]1[C@@H]2CC[C@@]2(C)[C@H]1CC[C@]2(C)O [methyl testosterone], the “reported adverse effects (in words)” value ([2]; oral use) is given as “liver damage including cholestasis, peliosis hepatitis, nodular regenerative hyperplasia, and primary hepatic tumors”.
